Tests used:
Calf thymus DNA = settings: Bos taurus
Description: Association constant measured for binding towards poly[d(A-T)] of DNA in calf thymus

Description for physchem: Ionisation constant (pKa)

Row | pKa (physchem) | Log K (Calf thymus DNA) | Structure (SMILES)
1 | 6.27 | 5.42 | COc1cc(NS(C)(=O)=O)ccc1Nc1c2ccccc2nc2c(C(=O)NCCO)cccc12
2 | 6.11 | 5.76 | COc1cc(NS(C)(=O)=O)ccc1Nc1c2ccccc2nc2c(Cl)cccc12
3 | 6.84 | 6.06 | COc1cc(NS(C)(=O)=O)ccc1Nc1c2ccccc2nc2cc(Cl)ccc12
4 | 7.37 | 5.95 | COc1cc(NS(C)(=O)=O)ccc1Nc1c2ccccc2nc2ccc(N)cc12
5 | – | 5.04 | COc1cc(NS(C)(=O)=O)ccc1Nc1c2ccccc2nc2c(C(=O)N(C)C)cccc12
6 | – | 5.54 | CNC(=O)c1cccc2c(Nc3ccc(NS(C)(=O)=O)cc3OC)c3ccccc3nc12
7 | 7.15 | 5.65 | C=NC(=O)CCc1cccc2c(Nc3ccc(NS(C)(=O)=O)cc3OC)c3ccccc3nc12
8 | 6.6 | 5.7 | COc1cc(NS(C)(=O)=O)ccc1Nc1c2ccccc2nc2ccc(I)cc12
9 | 6.71 | 5.28 | COc1cc(NS(C)(=O)=O)ccc1Nc1c2ccccc2nc2ccc(F)cc12
10 | 7.37 | 5.77 | CCOc1cccc2c(Nc3ccc(NS(C)(=O)=O)cc3OC)c3ccccc3nc12
11 | 7.39 | 6.03 | COc1cc(NS(C)(=O)=O)ccc1Nc1c2ccccc2nc2c(C)cccc12
12 | 7.36 | 5.74 | COc1cc(NS(C)(=O)=O)ccc1Nc1c2ccccc2nc2c(OCCO)cccc12
13 | 7.39 | 5.94 | COc1cc(NS(C)(=O)=O)ccc1Nc1c2ccccc2nc2c(OC)cccc12
14 | 5.05 | 5.2 | COc1cc(NS(C)(=O)=O)ccc1Nc1c2ccccc2nc2c([N+](=O)[O-])cccc12
15 | 7.3 | 5.9 | COc1cc(NS(C)(=O)=O)ccc1Nc1c2ccccc2nc2c(OCC(O)CO)cccc12 (stereo not given)
16 | 4.87 | 5.01 | COc1cc(NS(C)(=O)=O)ccc1Nc1c2ccccc2nc2c(C#N)cccc12
17 | 6.33 | 5.65 | COc1cc(NS(C)(=O)=O)ccc1Nc1c2ccccc2nc2c(F)cccc12
18 | – | 5.27 | COc1cc(NS(C)(=O)=O)ccc1Nc1c2ccccc2nc2ncccc12
19 | – | 5.47 | COc1cc(NS(C)(=O)=O)ccc1Nc1c2ccccc2nc2c(C(N)=O)cccc12
20 | 7.35 | 5.8 | CNC(=O)COc1cccc2c(Nc3ccc(NS(C)(=O)=O)cc3OC)c3ccccc3nc12
21 | 6.09 | 5.57 | COc1cc(NS(C)(=O)=O)ccc1Nc1c2ccccc2nc2c(Br)cccc12
22 | 7.45 | 5.35 | COc1cc(NS(C)(=O)=O)ccc1Nc1c2ccccc2nc2ccc(C)cc12
23 | 7.05 | 5.54 | COc1cc(NS(C)(=O)=O)ccc1Nc1c2ccccc2nc2cc(F)ccc12

Second part, the compound before the results:

Row | Structure (SMILES) | pKa (physchem) | Log K (Calf thymus DNA)
24 | COc1cc(NS(C)(=O)=O)ccc1Nc1c2ccccc2nc2ccc(C(C)C)cc12 | 7.4 | 5.39
25 | CNc1ccc2c(Nc3ccc(NS(C)(=O)=O)cc3OC)c3ccccc3nc2c1 | 10.1 | 6.17
26 | COc1ccc2c(Nc3ccc(NS(C)(=O)=O)cc3OC)c3ccccc3nc2c1 | 7.81 | 5.83
27 | COc1cc(NS(C)(=O)=O)ccc1Nc1c2ccccc2nc2c(C(=O)N3CCOCC3)cccc12 | 6.03 | 4.96
28 | COc1cc(NS(C)(=O)=O)ccc1Nc1c2ccccc2nc2cc(I)ccc12 | 6.77 | 6.35
29 | COc1cc(NS(C)(=O)=O)ccc1Nc1c2ccccc2nc2cc(C(C)C)ccc12 | 7.66 | 5.46
30 | CCCCNC(=O)c1cccc2c(Nc3ccc(NS(C)(=O)=O)cc3OC)c3ccccc3nc12 | – | 5.4
31 | COc1cc(NS(C)(=O)=O)ccc1Nc1c2ccccc2nc2c(C(=O)NCCCO)cccc12 | 6.3 | 5.4
32 | COc1cc(NS(C)(=O)=O)ccc1Nc1c2ccccc2nc2cnccc12 | 5.53 | 5.09
33 | COc1cc(NS(C)(=O)=O)ccc1Nc1c2ccccc2nc2cc(NC(C)=O)ccc12 | – | 6.24
34 | COc1cc(NS(C)(=O)=O)ccc1Nc1c2ccccc2nc2cc(C(F)(F)F)ccc12 | 6.24 | 5.24
35 | COc1cc(NS(C)(=O)=O)ccc1Nc1c2ccccc2nc2cc(N)ccc12 | 9.92 | 6.21
36 | COc1cc(NS(C)(=O)=O)ccc1Nc1c2ccccc2nc2c(-c3ccccc3)cccc12 | 7.02 | 5.6
37 | COc1cc(NS(C)(=O)=O)ccc1Nc1c2ccccc2nc2cc(C#N)ccc12 | 5.94 | 5.65
38 | COc1cc(NS(C)(=O)=O)ccc1Nc1c2ccccc2nc2cc([N+](=O)[O-])ccc12 | – | 5.65
39 | CCc1ccc2c(Nc3ccc(NS(C)(=O)=O)cc3OC)c3ccccc3nc2c1 | 7.65 | 5.66
40 | COc1cc(NS(C)(=O)=O)ccc1Nc1c2ccccc2nc2c(C(=O)NCC(N)=O)cccc12 | – | 5.39
41 | COc1cc(NS(C)(=O)=O)ccc1Nc1c2ccccc2nc2cc(C(N)=O)ccc12 | 6.66 | 5.66
42 | COc1cc(NS(C)(=O)=O)ccc1Nc1c2ccccc2nc2cc(C)ccc12 | 7.7 | 5.95
43 | COc1cc(NS(C)(=O)=O)ccc1Nc1c2ccccc2nc2c(C(=O)NCC(C)O)cccc12 (stereo not given) | 6.2 | 5.34
44 | COC(=O)Nc1ccc2c(Nc3ccc(NS(C)(=O)=O)cc3OC)c3ccccc3nc2c1 | 7.77 | 6.37
45 | COc1cc(NS(C)(=O)=O)ccc1Nc1c2ccccc2nc2c(OCCCC(N)=O)cccc12 | 7.36 | 5.74
46 | COc1cc(NS(C)(=O)=O)ccc1Nc1c2ccccc2nc2c(C(=O)NCC(O)CO)cccc12 (stereo not given) | – | 5.26
47 | COc1cc(NS(C)(=O)=O)ccc1Nc1c2ccccc2nc2cc(Br)ccc12 | 6.84 | 6.29
